Activity calls are given as the source filed them. The rule behind the calls is not given here.
Experiments:
[1] = Stimulation of ex vivo expansion of human CD34+ cells assessed as CD34+ cells at 165 nM incubated for 7 days supplemented with 50% fresh medium containing cytokines every other day by flow cytometry (reference value: 25.9 +/- 0.01%); assay type: functional
[2] = Stimulation of ex vivo expansion of human CD34+ cells assessed as increase in CD34+CD38- cells at 165 nM incubated for 7 days supplemented with 50% fresh medium containing cytokines every other day by flow cytometry relative to base line; assay type: functional
[3] = Stimulation of ex vivo expansion of human CD34+ cells assessed as increase in CD34+CD38- cells at 165 nM incubated for 7 days supplemented with 50% fresh medium containing cytokines every other day by flow cytometry relative to control; assay type: functional
[4] = Stimulation of ex vivo expansion of human CD34+CD38- cells assessed as increase in expansion of total cells at 165 nM incubated for 7 days supplemented with 50% fresh medium containing cytokines every other day by flow cytometry relative to control; assay type: functional
[5] = Stimulation of ex vivo expansion of human CD34+ cells assessed as colony forming cells at 165 nM measured after 14 days; assay type: functional
Homo sapiens [6] = species: Homo sapiens; assay: Stimulation of ex vivo expansion of human CD34+ assessed as increase in granulocyte differentiation at 165 nM measured after 14 days; assay type: functional
[7] = Stimulation of ex vivo expansion of human CD34+ cells assessed as increase in colony forming cells at 165 nM after 14 days relative to control; assay type: functional
[8] = Stimulation of ex vivo expansion of human CD34+ cells assessed as CD34+CD38-CD90+[…] cells at 165 nM incubated for 7 days supplemented with 50% fresh medium containing cytokines every other day by flow cytometry (reference value: 2.98 +/- 0.5%); assay type: functional
[9] = Stimulation of ex vivo expansion of human CD34+ cells assessed as CD34+/CD38- level at 0.01 to 1 uM incubated for 7 days supplemented with 50% fresh medium containing cytokines every other day by flow cytometry relative to control; assay type: functional
[10] = Stimulation of ex vivo expansion of human CD34+ cells assessed as increase in CD34+ cells at 165 nM incubated for 7 days supplemented with 50% fresh medium containing cytokines every other day by flow cytometry relative to base line; assay type: functional
Homo sapiens [11] = species: Homo sapiens; assay: Stimulation of ex vivo expansion of human CD34+ cells assessed as decrease in burst forming units of erythroid at 165 nM measured after 14 days; assay type: functional
[12] = Stimulation of ex vivo expansion of human CD34+ cells assessed as CD34+CD38-CD90+[…]CD49F+ cells at 165 nM incubated for 7 days supplemented with 50% fresh medium containing cytokines every other day by flow cytometry (reference value: 0.16 +/- 0.04%); assay type: functional
[13] = Stimulation of ex vivo expansion of human CD34+ cells assessed as CD34+CD38- level at 0.01 to 1 uM incubated for 7 days supplemented with 50% fresh medium containing cytokines every other day by flow cytometry (reference value: 19.10 +/- 0.35%); assay type: functional
[14] = Stimulation of ex vivo expansion of human CD34+ cells assessed as CD34+/CD38- cells at 165 nM incubated for 7 days supplemented with 50% fresh medium containing cytokines every other day by flow cytometry (reference value: 19.16 +/- 0.32%); assay type: functional
THP-1 = assay: Cytotoxicity against human THP1 cells assessed as reduction cell viability up to 1600 nM after 4 days by CCK8 assay; assay type: cell-based; details: thp-1, 96 h
Homo sapiens [15] = species: Homo sapiens; assay: Stimulation of ex vivo expansion of human CD34+ cells assessed as increase in granulocyte/macrophage differentiation at 165 nM measured after 14 days; assay type: functional
[16] = Stimulation of ex vivo expansion of human CD34+ cells assessed as CD34+CD38- level incubated for 7 days supplemented with 50% fresh medium containing cytokines every other day by flow cytometry; assay type: functional; details: Homo sapiens, 168 h; read-out: EC50
[17] = Stimulation of ex vivo expansion of human CD34+ cells assessed as increase in expansion of total cells at 165 nM incubated for 7 days supplemented with 50% fresh medium containing cytokines every other day by flow cytometry relative to base line; assay type: functional
[18] = Cytotoxicity against human CD34+ cells assessed as live cells at 165 nM incubated for 7 days supplemented with 50% fresh medium containing cytokines every other day by flow cytometry (reference value: 77.3 +/- 2%); assay type: cell-based; details: read-out: Activity
[19] = Stimulation of ex vivo expansion of human CD34+ cells assessed as increase in expansion of total cells at 165 nM incubated for 7 days supplemented with 50% fresh medium containing cytokines every other day by flow cytometry relative to control; assay type: functional

Compound: COc1cc2c(cc1OC)CN(CCNc1nc(Cc3ccccc3)nc3[nH]c4cc(-c5nnn(C)n5)ccc4c13)CC2
- Activity [1]: 60.33%
- fold change (FC) [2]: 4 - 5
- fold change (FC) [3]: 4.4
- fold change (FC) [4]: 4.9
- Activity [5]: 254 CFU
- Activity (Homo sapiens [6]): Active
- fold change (FC) [7]: 1.4
- Activity [8]: 4.05%
- fold change (FC) [9]: 3.65
- fold change (FC) [10]: 5
- Activity (Homo sapiens [11]): Active
- Activity [12]: 0.21%
- Activity [13]: 69.69%
- Activity [14]: 58%
- Activity (THP-1): Non-Toxic
- Activity (Homo sapiens [15]): Active
- EC50 [16]: 0.03 µM
- fold change (FC) [17]: 5
- viability at 168 h, 0.165 µM [18]: 80.6%
- fold change (FC) [19]: 2.4

From ChEMBL document CHEMBL4393685, “Synthesis and evaluation of pyrimidoindole analogs in umbilical cord blood ex vivo expansion” (Eur J Med Chem, 2019)
